# In patent US20050074879A1, “Antisense oligonucleotide modulation of STAT3 expression” (priority 2000, published 2005):
# Oligonucleotides are written 5' to 3', each unit as a sugar letter and its base; * is a phosphorothioate linkage, no mark a phosphodiester; rarer units and linkages stand in square brackets, end groups in braces. Plain capitals give the bases only. e = 2'-O-(2-methoxyethyl) (MOE); [5mC] = 5-methylcytosine; d = 2'-deoxy (DNA)
# Tested on: Human STAT3 mRNA
# Experiment: Inhibition of human STAT3 mRNA levels in A549 cells, 75 nM, real-time PCR (Table 13)
# Type: cell-based
# Conditions: 75 nM oligonucleotide with LIPOFECTIN, real-time PCR PPS 199, percent inhibition relative to untreated control cells, average of 2 experiments
# Protocol: Oligonucleotide activity is assayed by quantitation of STAT3 mRNA levels by real-time PCR (RT-PCR) using the ABI PRISMS 7700 Sequence Detection System (PE-Applied Biosystems, Foster City, Calif.) according to manufacturer's instructions. This is a closed-tube, non-gel-based, fluorescence detection system which allows high-throughput quantitation of polymerase chain reaction (PCR) products in real-time. As opposed to standard PCR, in which amplification products are quantitated after the PCR is completed, products in RT-PCR are quantitated as they accumulate. This is accomplished by including in the PCR reaction an oligonucleotide probe that anneals specifically between the forward and reverse PCR primers, and contains two fluorescent dyes. A reporter dye (e.g., JOE or FAM, PE-Applied Biosystems, Foster City, Calif.) is attached to the 5′ end of the probe and a quencher dye (e.g., TAMRA, PE-Applied Biosystems, Foster City, Calif.) is attached to the 3′ end of the probe. When the probe and dyes are intact, reporter dye emission is quenched by the proximity of the 3′ quencher dye. During amplification, annealing of the probe to the target sequence creates a substrate that can be cleaved by the 5′-exonuclease activity of Taq polymerase. […] With each cycle, additional reporter dye molecules are cleaved from their respective probes, and the fluorescence intensity is monitored at regular (six-second) intervals by laser optics built into the ABI PRISM™ 7700 Sequence Detection System. In each assay, a series of parallel reactions containing serial dilutions of mRNA from untreated control samples generates a standard curve that is used to quantitate the percent inhibition after antisense oligonucleotide treatment of test samples.
# RT-PCR reagents are obtained from PE-Applied Biosystems, Foster City, Calif. RT-PCR reactions are carried out by adding 25 l PCR cocktail (1× TAQMAN7 buffer A, 5.5 mM MgCl2, 300 µM each of DATP, dCTP and dGTP, 600 µM of dUTP, 100 nM each of forward primer, reverse primer, and probe, 20 U RNAse inhibitor, 1.25 units AMPLITAQ GOLD7, and 12.5 U MuLV reverse transcriptase) to 96 well plates containing 25 l poly(A) mRNA solution. The RT reaction is carried out by incubation for 30 minutes at 48° C. following a 10 minute incubation at 95° C. to activate the AMPLITAQ GOLD7, 40 cycles of a two-step PCR protocol are carried out: 95° C. for 15 seconds (denaturation) followed by 60° C. for 1.5 minutes (annealing/extension).
# The compounds were analyzed for their effect on STAT3 mRNA levels in A549 cells. The human lung carcinoma cell line A549 was obtained from the American Type Culture Collection (ATCC) (Manassas, Va.). A549 cells were routinely cultured in DMEM basal media (Invitrogen Corporation, Carlsbad, Calif.) supplemented with 10% fetal calf serum (Invitrogen Corporation, Carlsbad, Calif.), 100 units/mL penicillin, and 100 ug/mL streptomycin (Invitrogen Corporation, Carlsbad, Calif.). Cells were routinely passaged by trypsinization and dilution when they reached 90% confluence.
# When cells reached 65-75% confluency, they were treated with oligonucleotide. For cells grown in 96-well plates, wells were washed once with […] OPTI-MEM-1 reduced-serum medium (Invitrogen Corporation, Carlsbad, Calif.) and then treated with 130 µL of OPTI-MEM-1 containing […] LIPOFECTIN (Invitrogen Corporation, Carlsbad, Calif.) and 75 nM of the compounds in Table 13. Cells were treated and data were obtained in duplicate. Untreated cells served as controls. After 4-7 hours of treatment at 37° C., the medium was replaced with fresh medium. Cells were harvested 16-24 hours after oligonucleotide treatment. STAT3 mRNA levels in A549 cells were quantitated by real-time PCR as described by other methods herein.
# Probes and primers to human STAT3 were designed to hybridize to a human STAT3 sequence, using published sequence information (incorporated herein as SEQ ID NO: 1). For STAT 3 the PCR primers were: • forward primer: […]
row,Substance,% Inhib (inhibition of human STAT 3 mRNA levels) [%]
1,337315 (antisense eG*eA*eG*eG*e[5mC]*d[5mC]*dT*dT*dG*dG*dT*dG*dA*dT*dA*e[5mC]*eA*e[5mC]*e[5mC]*eT) [compound 337315],46
2,337337 (antisense eA*eT*eG*eT*eT*dG*dT*dT*d[5mC]*dA*dG*d[5mC]*dT*dG*d[5mC]*eT*eG*e[5mC]*eT*eT) [compound 337337],76
3,337364 (antisense eG*eG*eT*eG*eA*dG*dG*dG*dA*d[5mC]*dT*d[5mC]*dA*dA*dA*e[5mC]*eT*eG*e[5mC]*e[5mC]) [compound 337364],70
4,337314 (antisense e[5mC]*eT*e[5mC]*eA*eA*dA*dG*dG*dT*dG*dA*dT*d[5mC]*dA*dG*eG*eT*eG*e[5mC]*eA) [compound 337314],75
5,337285 (antisense e[5mC]*eA*eT*eG*eT*d[5mC]*dT*d[5mC]*d[5mC]*dT*dT*dG*dA*d[5mC]*dT*e[5mC]*eT*eT*eG*eA) [compound 337285],78
6,337263 (antisense eT*e[5mC]*eT*eT*eG*dA*d[5mC]*dT*d[5mC]*dT*d[5mC]*dA*dA*dT*d[5mC]*e[5mC]*eA*eA*eG*eG) [compound 337263],79
7,337365 (antisense e[5mC]*eA*eG*eT*e[5mC]*dG*dT*dA*dT*d[5mC]*dT*dT*dT*d[5mC]*dT*eG*e[5mC]*eA*eG*e[5mC]) [compound 337365],84
8,337318 (antisense eG*eG*eT*e[5mC]*eT*d[5mC]*dT*dA*dG*dG*dT*d[5mC]*dA*dA*dT*e[5mC]*eT*eT*eG*eA) [compound 337318],74
9,337283 (antisense eT*eG*eA*e[5mC]*eT*d[5mC]*dT*dT*dG*dA*dG*dG*dG*dT*dT*eT*eT*eA*eT*eA) [compound 337283],71
10,337290 (antisense eG*eA*eG*e[5mC]*eA*dT*d[5mC]*dT*dG*dT*dT*d[5mC]*d[5mC]*dA*dG*e[5mC]*eT*eG*e[5mC]*eT) [compound 337290],80
11,337381 (antisense eT*eT*eA*eA*eA*dA*dA*dG*dT*dG*d[5mC]*dA*dA*dT*dG*e[5mC]*e[5mC]*eA*eG*eG) [compound 337381],86
12,337298 (antisense eA*eG*eT*eT*eG*dA*dG*dA*dT*dT*d[5mC]*dT*dG*d[5mC]*dT*eA*eA*eT*eG*eA) [compound 337298],74
13,337268 (antisense eG*eA*eT*eA*e[5mC]*d[5mC]*dT*dG*d[5mC]*dT*d[5mC]*dT*dG*dA*dA*eG*eA*eA*eA*e[5mC]) [compound 337268],75
14,337275 (antisense eT*eT*e[5mC]*eT*eG*dT*dT*d[5mC]*dT*dA*dG*dA*dT*d[5mC]*d[5mC]*eT*eG*e[5mC]*eA*e[5mC]) [compound 337275],82
15,337317 (antisense e[5mC]*eT*eA*eG*eG*dT*d[5mC]*dA*dA*dT*d[5mC]*dT*dT*dG*dA*eG*eG*e[5mC]*e[5mC]*eT) [compound 337317],55
16,337307 (antisense eT*e[5mC]*eA*eA*eT*dG*d[5mC]*dA*d[5mC]*dA*d[5mC]*dT*dT*dT*dA*eA*eT*eT*eT*eT) [compound 337307],53
17,337288 (antisense eT*eG*eG*eT*e[5mC]*dA*d[5mC]*dT*dG*dA*d[5mC]*dT*dG*dG*dT*eT*eG*eT*eT*eT) [compound 337288],84

row,Substance,% Inhib (inhibition of human STAT 3 mRNA levels) [%]
1,337282 (antisense e[5mC]*eT*eT*eG*eA*dG*dG*dG*dT*dT*dT*dT*dA*dT*dA*eG*eT*eT*eG*eA) [compound 337282],58
2,337246 (antisense e[5mC]*eT*e[5mC]*e[5mC]*eT*dA*dA*dA*dT*dT*dA*dA*dG*dA*dA*e[5mC]*eT*eT*e[5mC]*eT) [compound 337246],37
3,337294 (antisense e[5mC]*eT*e[5mC]*eT*eT*d[5mC]*d[5mC]*dA*dG*dT*d[5mC]*dA*dG*d[5mC]*d[5mC]*eA*eG*e[5mC]*eT*e[5mC]) [compound 337294],75
4,337260 (antisense e[5mC]*e[5mC]*eA*eT*eT*dG*dG*dG*d[5mC]*d[5mC]*dA*dT*d[5mC]*d[5mC]*dT*eG*e[5mC]*eT*eA*eA) [compound 337260],62
5,337355 (antisense eA*eT*eT*eG*e[5mC]*dT*dG*d[5mC]*dA*dG*dG*dT*d[5mC]*dG*dT*eT*eG*eG*eT*eG) [compound 337355],61
6,337385 (antisense eT*eT*eA*eA*eG*dT*dT*dT*d[5mC]*dT*dT*dA*dA*dA*dT*eA*e[5mC]*eA*eG*eA) [compound 337385],70
7,337340 (antisense eA*eT*eT*eT*e[5mC]*dA*dG*d[5mC]*dA*dA*dA*dT*dG*dA*d[5mC]*eA*eT*eG*eT*eT) [compound 337340],72
8,337327 (antisense eT*e[5mC]*e[5mC]*e[5mC]*eA*dA*dG*dA*dG*dT*dT*dT*d[5mC]*dT*d[5mC]*eT*eG*e[5mC]*e[5mC]*eA) [compound 337327],84
9,337323 (antisense eT*eG*eG*e[5mC]*eA*dT*d[5mC]*dT*dG*dA*d[5mC]*dA*dG*dA*dT*eG*eT*eT*eG*eG) [compound 337323],79
10,337286 (antisense eA*eT*eT*e[5mC]*eA*dG*dA*dT*d[5mC]*dT*dT*dG*d[5mC]*dA*dT*eG*eT*e[5mC]*eT*e[5mC]) [compound 337286],77
11,337326 (antisense eG*eT*e[5mC]*eA*eG*d[5mC]*dT*dG*d[5mC]*dT*d[5mC]*dG*dA*dT*dG*e[5mC]*eT*e[5mC]*eA*eG) [compound 337326],78
12,337308 (antisense e[5mC]*e[5mC]*e[5mC]*eA*eG*dA*dA*dT*dG*dT*dT*dA*dA*dA*dT*eT*eT*e[5mC]*e[5mC]*eG) [compound 337308],70
13,337341 (antisense eT*eG*eA*eT*eG*dA*dT*dT*dT*d[5mC]*dA*dG*d[5mC]*dA*dA*eA*eT*eG*eA*e[5mC]) [compound 337341],74
14,337245 (antisense eA*eG*e[5mC]*e[5mC]*eT*d[5mC]*dT*dG*d[5mC]*dA*d[5mC]*d[5mC]*d[5mC]*dT*d[5mC]*eA*eT*eG*eT*eT) [compound 337245],77
15,337331 (antisense e[5mC]*e[5mC]*eT*eT*eG*d[5mC]*d[5mC]*dA*dG*d[5mC]*d[5mC]*dA*dT*dG*dT*eT*eT*eT*e[5mC]*eT) [compound 337331],88
16,337256 (antisense eG*eA*eA*eG*eG*dG*d[5mC]*d[5mC]*dT*d[5mC]*dT*d[5mC]*d[5mC]*dG*dA*eG*e[5mC]*e[5mC]*eG*eA) [compound 337256],67
17,337367 (antisense eA*eA*eA*eG*eT*dG*d[5mC]*d[5mC]*d[5mC]*dA*dG*dA*dT*dT*dG*e[5mC]*eT*e[5mC]*eA*eA) [compound 337367],82
